Experimental data taken from PubChem BioAssay (NCI).
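Dose response: 5 concentrations. Exposure: 48 h. Format: 96-well plates. Endpoint: linear interpolation; highest concentration if not reached. The concentration for full growth arrest is given as TGI.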

Columns and labels:
Test in all cases: inhibition of tumour cell growth, NCI panel, 48 h
[1] = system: LXFL 529 NSCLC
[2] = system: HOP-18 NSCLC
[3] = system: SR leukemia
[4] = system: SNB-75 CNS
[5] = system: SF-295 CNS
[6] = system: OVCAR-3 ovarian
[7] = system: LOX IMVI melanoma
[8] = system: SK-MEL-2 melanoma
[9] = system: HT29 colon
[10] = system: SK-MEL-5 melanoma
[11] = system: UO-31 renal
[12] = system: HCT-116 colon
[13] = system: SK-OV-3 ovarian
[14] = system: NCI-H460 lung
[15] = system: EKVX NSCLC
[16] = system: MALME-3M melanoma
[17] = system: SF-268 CNS
[18] = system: DLD-1 colon
[19] = system: CAKI-1 renal
[20] = system: SF-539 CNS
[21] = system: ACHN renal
[22] = system: KM20L2 colon
[23] = system: NCI-H522 lung
[24] = system: OVCAR-8 ovarian
[25] = system: OVCAR-4 ovarian
[26] = system: M14 melanoma
[27] = system: IGROV1 ovarian
[28] = system: RXF 393 renal
[29] = system: RXF-631 renal
[30] = system: CCRF-CEM leukemia
[31] = system: UACC-257 melanoma
[32] = system: HCT-15 colon
[33] = system: U251 CNS
[34] = system: TK-10 renal
[35] = system: HCC-2998 colon
[36] = system: UACC-62 melanoma
[37] = system: A549 NSCLC
[38] = system: SNB-19 CNS
[39] = system: SN12C renal
[40] = system: M19-MEL melanoma
[41] = system: NCI-H23 lung
[42] = system: RPMI-8226 leukemia
[43] = system: K-562 leukemia
[44] = system: NCI-H226 lung
[45] = system: MOLT-4 leukemia
[46] = system: HOP-62 NSCLC
[47] = system: HL-60(TB) leukemia
[48] = system: SNB-78 CNS
[49] = system: DMS 114 small cell lung
[50] = system: DMS 273 small cell lung
[51] = system: SW-620 colon
[52] = system: OVCAR-5 ovarian
[53] = system: 786-0 renal
[54] = system: SK-MEL-28 melanoma
[55] = system: XF 498 CNS
[56] = system: COLO 205 colon
[57] = system: KM12 colon

Measured: TGI

CCOC(=O)c1ncoc1[C@H]1COC(C)(C)O1
not listed: [53] | [54] | [55] | [56] | [57]
> 100 µM: all other assays above

CCOC(=O)/C(C1=N[C@H](C(=O)OCC)CS1)=C(\C)O
not listed: [13] | [20] | [34] | [49] | [50]
> 100 µM: all other assays above
